From US20260306640A1, “TECHNOLOGIES TARGETING CELL STATES” (Auron Therapeutics, Inc., priority 2023, published 2026)

Experiments:
Format in all cases: cell-based
[1] = tested on: MOLM-13 cells; experiment: Cell growth inhibition, AML cell line MOLM-13 (CyQuant, day 7); conditions: Homo sapiens, 168 h; MOLM-13, day 7, CyQuant; read-out: MOLM13 GI50
Excerpt: Among other things, provided technologies are useful for treating various diseases, disorders, or conditions. For example, in some embodiments, provided technologies are useful for treating cancer as confirmed in the present Example. […] In some embodiments, provided technologies can inhibit cell proliferation. In some embodiments, the present disclosure provides technologies for assessing various technologies, e.g., compounds, compositions, or methods. Among other things, the present Example provides technologies, e.g., cell growth inhibition assay, for assessing various technologies. […] In some embodiments, the following cell growth inhibition methods are utilized to assess provided technologies.
AML: AML cell line MOLM-13 cells were cultured in RPMI+15% FBS and were plated at 500 cells/well in 100 uL media in a U-bottom 96-well plate. Compounds were dilute to 3×final in full media and 50 uL were added to corresponding wells. Compound and media were replenished on days 2 and 5. On day 7, cells were transferred to a 96-well black bottom plate and CyQuant was performed per manufacturer's instructions.
In some assessments, for cell growth inhibition, cells, e.g., MOLM13, NCI-H1048, and LASCPC-01 cells, were counted using a hemocytometer or automated cell counting in triplicates. In some assessments, proliferation in NEPC organoids as measured with Cell Titer Glo reagent (Promega). Growth inhibition was determined relative to vehicle control.

[2] = target: T1, KAT2A (Homo sapiens, UniProt Q92830); experiment: KAT2A degradation, Western Blot (Jess), NCI-H1048 cells; set-up: degrader, Western blot (Jess); conditions: NCI-H1048 cells, KAT2A, 24 h, Western Blot, vs DMSO; read-out: KAT2A NCI-H1048 DC50
How it was run: (§1)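 DC50 came from protein loss relative to DMSO, measured by Jess capillary immunoblot of RIPA lysates with chemiluminescence read-out. Before lysis, NCI-H1048 cells in 5% FBS HITES medium were exposed to compound for 24 h at 37° C.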

[3] = target: KAT2B (Homo sapiens, UniProt Q92831); experiment: KAT2B degradation, Western Blot (Jess), NCI-H1048 cells; set-up: degrader, Western blot (Jess); conditions: NCI-H1048 cells, KAT2B, 24 h, Western Blot, vs DMSO; read-out: KAT2B NCI-H1048 DC50
How it was run: as §1

[4] = target: T1, KAT2A; experiment: KAT2A degradation, Western Blot (Jess), MOLM-13 cells; set-up: degrader, Western blot; conditions: MOLM-13 cells, KAT2A, 24 h, Western Blot, vs DMSO; read-out: KAT2A MOLM-13 DC50
How it was run: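 MOLM-13 cells in RPMI 1640/20% FBS were treated with compound for 24 h at 37 °C. RIPA lysates (4 μg) were run on a capillary Western (Jess) with anti-KAT2A antibody and chemiluminescent detection. DC50 comes from percent protein reduction versus DMSO control.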

T1 sequence (Q92830 whole entry): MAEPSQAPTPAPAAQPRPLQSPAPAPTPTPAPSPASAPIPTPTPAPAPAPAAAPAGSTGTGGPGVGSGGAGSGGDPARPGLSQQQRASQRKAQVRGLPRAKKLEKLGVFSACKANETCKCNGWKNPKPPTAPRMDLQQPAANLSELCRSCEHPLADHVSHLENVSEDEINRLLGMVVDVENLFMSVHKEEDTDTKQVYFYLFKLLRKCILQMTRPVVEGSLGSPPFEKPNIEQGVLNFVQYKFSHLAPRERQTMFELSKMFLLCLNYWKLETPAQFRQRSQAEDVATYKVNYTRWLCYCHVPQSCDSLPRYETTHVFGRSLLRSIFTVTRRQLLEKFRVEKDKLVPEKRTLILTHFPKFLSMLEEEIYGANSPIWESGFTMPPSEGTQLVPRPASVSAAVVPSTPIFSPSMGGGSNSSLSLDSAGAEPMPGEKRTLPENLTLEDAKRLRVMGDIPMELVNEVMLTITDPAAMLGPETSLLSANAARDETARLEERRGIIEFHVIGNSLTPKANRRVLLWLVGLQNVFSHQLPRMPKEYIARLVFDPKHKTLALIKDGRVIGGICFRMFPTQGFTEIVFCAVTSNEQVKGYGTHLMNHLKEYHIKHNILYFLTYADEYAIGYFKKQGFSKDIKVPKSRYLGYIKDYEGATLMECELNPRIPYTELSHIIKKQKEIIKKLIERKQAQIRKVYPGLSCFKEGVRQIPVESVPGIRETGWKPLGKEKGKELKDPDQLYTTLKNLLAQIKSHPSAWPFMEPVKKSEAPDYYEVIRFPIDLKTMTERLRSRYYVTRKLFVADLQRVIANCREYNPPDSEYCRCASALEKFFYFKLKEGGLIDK
Sequence of KAT2B (Q92831 whole entry): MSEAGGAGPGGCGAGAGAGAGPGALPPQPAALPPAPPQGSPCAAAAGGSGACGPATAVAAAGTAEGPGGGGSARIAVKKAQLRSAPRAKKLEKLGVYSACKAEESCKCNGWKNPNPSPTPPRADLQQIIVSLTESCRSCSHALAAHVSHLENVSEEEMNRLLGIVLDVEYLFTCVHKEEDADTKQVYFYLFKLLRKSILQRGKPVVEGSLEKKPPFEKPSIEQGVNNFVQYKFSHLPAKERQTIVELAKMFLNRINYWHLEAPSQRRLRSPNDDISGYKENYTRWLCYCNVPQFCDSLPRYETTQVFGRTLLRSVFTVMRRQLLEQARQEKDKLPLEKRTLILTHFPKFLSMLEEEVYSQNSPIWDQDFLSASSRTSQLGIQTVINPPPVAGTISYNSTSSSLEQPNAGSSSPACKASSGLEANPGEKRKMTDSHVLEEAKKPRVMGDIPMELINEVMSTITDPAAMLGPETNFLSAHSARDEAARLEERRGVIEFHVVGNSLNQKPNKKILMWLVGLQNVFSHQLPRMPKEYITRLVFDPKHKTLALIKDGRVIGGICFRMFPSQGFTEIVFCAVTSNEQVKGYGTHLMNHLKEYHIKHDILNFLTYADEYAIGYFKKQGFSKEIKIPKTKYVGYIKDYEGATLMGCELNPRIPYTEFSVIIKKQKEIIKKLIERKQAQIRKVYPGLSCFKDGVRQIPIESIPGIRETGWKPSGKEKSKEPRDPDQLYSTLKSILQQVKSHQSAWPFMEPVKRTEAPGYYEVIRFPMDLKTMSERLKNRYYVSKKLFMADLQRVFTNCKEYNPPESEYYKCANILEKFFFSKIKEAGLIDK

Row | GI50 [1] | DC50 [2] | DC50 [3] | DC50 [4] | SMILES
1 | 3.9 nM | < 1 nM | < 1 nM | – | CN1C[C@H](Nc2cnn(C)c(=O)c2Br)C[C@H](c2ccc(C(=O)N3CCC4(CC3)CCN(c3ccc(C5CCC(=O)NC5=O)cc3)CC4)cc2)C1 (single isomer, unassigned) [Compound 240]
2 | 0.4 nM | < 1 nM | < 1 nM | – | CN1C[C@H](Nc2cnn(C)c(=O)c2Cl)C[C@H](c2ccc(C(=O)N3CCC4(CC3)CCN(c3ccc(C5CCC(=O)NC5=O)cn3)CC4)cc2)C1 (stereo partly shown) [Compound 2-52]
3 | 5.6 nM | < 1 nM | 1 to 30 nM | < 1 nM | CN1C[C@H](Nc2cnn(C)c(=O)c2Br)C[C@H](c2ccc(COc3ccc4c(c3)C(=O)N(C3CCC(=O)NC3=O)C4=O)cc2)C1 (stereo partly shown) [Compound 39]
4 | 7.8 nM | – | – | < 1 nM | CN1C[C@H](Nc2cnn(C)c(=O)c2Br)C[C@H](c2ccc(C(=O)N3CCC(CN4CCN(c5ccc6c(c5)C(=O)N(C5CCC(=O)NC5=O)C6=O)CC4)CC3)cc2)C1 (stereo partly shown) [Compound 40]
5 | 1.1 nM | < 1 nM | 1 to 30 nM | < 1 nM | CN1C[C@H](Nc2cnn(C)c(=O)c2Br)C[C@H](c2ccc(CN3CCN(c4cccc([C@H]5CCC(=O)NC5=O)c4)CC3)cc2)C1 [Compound 84, 3-[3-[4-[[4-[(3R,5R)-5-[(5-bromo-1-methyl-6-oxo-pyridazin-4-yl)amino]-1-methyl-3-piperidyl]phenyl]methyl]piperazin-1-yl]phenyl]piperidine-2,6-dione]
6 | 1 nM | < 1 nM | < 1 nM | < 1 nM | CN1C[C@H](Nc2cnn(C)c(=O)c2Cl)C[C@H](c2ccc(C(=O)N3CCC4(CC3)CCN(c3ccc(C5CCC(=O)NC5=O)cc3)CC4)cc2)C1 (stereo partly drawn) [Compound 145, 3-[4-[3-[4-[(3R,5R)-5-[(5-chloro-1-methyl-6-oxo-pyridazin-4-yl)amino]-1-methyl-3-piperidyl]benzoyl]-3,9-diazaspiro[5.5]undecan-9-yl]phenyl]piperidine-2,6-dione]
7 | 5.9 nM | < 1 nM | < 1 nM | < 1 nM | CN1C[C@H](Nc2cnn(C)c(=O)c2Br)C[C@H](c2ccc(C(=O)N3CCC4(CC3)CCN(c3ccc(C5CCC(=O)NC5=O)cc3F)CC4)cc2)C1 (stereo partly shown) [Compound 146]
8 | – | < 1 nM | 1 to 30 nM | < 1 nM | CN1C[C@H](Nc2cnn(C)c(=O)c2Cl)C[C@H](c2ccc(CN3CCN(c4cccc(C5CCC(=O)NC5=O)c4)CC3)cc2)C1 (stereo partly shown) [Compound 162]
9 | – | < 1 nM | 1 to 30 nM | < 1 nM | CN1C[C@H](Nc2cnn(C)c(=O)c2Cl)C[C@H](c2ccc(CN3CCC(Oc4ccc(C5CCC(=O)NC5=O)cc4)CC3)cc2)C1 (stereo partly shown) [Compound 168]
10 | – | < 1 nM | 1 to 30 nM | < 1 nM | CN1C[C@H](Nc2cnn(C)c(=O)c2Cl)C[C@H](c2ccc(CN3CCN(c4ccc5c(c4)C(=O)N(C4CCC(=O)NC4=O)C5=O)CC3)cc2)C1 (stereo partly shown) [Compound 175]
11 | – | < 1 nM | > 30 nM | 1 to 30 nM | CN1C[C@H](Nc2cnn(C)c(=O)c2Br)C[C@H](c2ccc(CN3CC(Oc4cccc(C5CCC(=O)NC5=O)c4)C3)cc2)C1 (stereo partly shown) [Compound 184]
12 | – | < 1 nM | < 1 nM | < 1 nM | Cc1c(N[C@@H]2C[C@H](c3ccc(C(=O)N4CCC5(CC4)CCN(c4ccc(C6CCC(=O)NC6=O)cc4)CC5)cc3)CN(C)C2)cnn(C)c1=O (stereo partly shown) [Compound 186]
13 | – | < 1 nM | 1 to 30 nM | < 1 nM | Cc1c(N[C@@H]2C[C@H](c3ccc(CN4CCN(c5cccc(C6CCC(=O)NC6=O)c5)CC4)cc3)CN(C)C2)cnn(C)c1=O (stereo partly shown) [Compound 187]
14 | – | < 1 nM | > 30 nM | < 1 nM | Cc1c(N[C@@H]2C[C@H](c3ccc(CN4CCC(Oc5ccc(C6CCC(=O)NC6=O)cc5)CC4)cc3)CN(C)C2)cnn(C)c1=O (stereo partly shown) [Compound 188]
15 | 0.3 nM | < 1 nM | < 1 nM | – | CN1C[C@H](Nc2cnn(C)c(=O)c2Cl)C[C@H](c2ccc(C(=O)N3CCC4(CC3)CCN(c3ccc5c(C6CCC(=O)NC6=O)nn(C)c5c3)CC4)cc2)C1 (stereo partly drawn) [Compound 208, 3-[6-[3-[4-[(3R,5R)-5-[(5-chloro-1-methyl-6-oxo-pyridazin-4-yl)amino]-1-methyl-3-piperidyl]benzoyl]-3,9-diazaspiro[5.5]undecan-9-yl]-1-methyl-indazol-3-yl]piperidine-2,6-dione]
16 | 5.9 nM | < 1 nM | < 1 nM | – | Cc1cc(N2CCC3(CCN(C(=O)c4ccc([C@H]5C[C@@H](Nc6cnn(C)c(=O)c6C)CN(C)C5)cc4)CC3)CC2)ccc1C1CCC(=O)NC1=O (stereo partly shown) [Compound 219]
17 | 4.4 nM | < 1 nM | < 1 nM | – | Cc1cc(N2CCC3(CCN(C(=O)c4ccc([C@H]5C[C@@H](Nc6cnn(C)c(=O)c6Cl)CN(C)C5)cc4)CC3)CC2)ccc1C1CCC(=O)NC1=O (stereo partly shown) [Compound 223]
18 | 0.9 nM | < 1 nM | < 1 nM | – | CN1C[C@H](Nc2cnn(C)c(=O)c2Cl)C[C@H](c2ccc(C(=O)N3CCC4(CC3)CCN(c3ccc(C5CCC(=O)NC5=O)c(F)c3)CC4)cc2)C1 (stereo partly drawn) [Compound 228, 3-[4-[3-[4-[(3R,5R)-5-[(5-chloro-1-methyl-6-oxo-pyridazin-4-yl)amino]-1-methyl-3-piperidyl]benzoyl]-3,9-diazaspiro[5.5]undecan-9-yl]-2-fluoro-phenyl]piperidine-2,6-dione]
19 | 0.7 nM | < 1 nM | < 1 nM | – | Cc1c(N[C@@H]2C[C@H](c3ccc(C(=O)N4CCC5(CC4)CCN(c4ccc(C6CCC(=O)NC6=O)c(F)c4)CC5)cc3)CN(C)C2)cnn(C)c1=O (stereo partly drawn) [Compound 229, 3-[4-[3-[4-[(3R,5R)-5-[(1,5-dimethyl-6-oxo-pyridazin-4-yl)amino]-1-methyl-3-piperidyl]benzoyl]-3,9-diazaspiro[5.5]undecan-9-yl]-2-fluoro-phenyl]piperidine-2,6-dione]
20 | 7.3 nM | < 1 nM | 1 to 30 nM | – | CN1C[C@H](Nc2cnn(C)c(=O)c2Cl)C[C@H](c2ccc(C(=O)N3CCC4(CCC(c5ccc(C6CCC(=O)NC6=O)cc5F)CC4)CC3)cc2)C1 (stereo partly shown) [Compound 231]
21 | 5.2 nM | < 1 nM | 1 to 30 nM | – | COc1cc(N2CCC3(CCN(C(=O)c4ccc([C@H]5C[C@@H](Nc6cnn(C)c(=O)c6Cl)CN(C)C5)cc4)CC3)CC2)ccc1C1CCC(=O)NC1=O (stereo partly shown) [Compound 232]
22 | 5.5 nM | < 1 nM | 1 to 30 nM | – | CN1C[C@H](Nc2cnn(C)c(=O)c2Cl)C[C@H](c2ccc(C(=O)N3CCC4(CC3)CCN(c3ccc(C5CCC(=O)NC5=O)nc3)CC4)cc2)C1 (stereo partly shown) [Compound 233]
23 | > 100 nM | 1 to 30 nM | > 30 nM | – | Cc1cc(N2CCC3(CCN(C(=O)c4ccc([C@H]5C[C@@H](Nc6cnn(C)c(=O)c6Cl)CN(C)C5)cc4)CC3)CC2)c(F)cc1C1CCC(=O)NC1=O (stereo partly shown) [Compound 242]
24 | > 100 nM | 1 to 30 nM | > 30 nM | – | Cc1cc(N2CCC3(CCN(C(=O)c4ccc([C@H]5C[C@@H](Nc6cnn(C)c(=O)c6Br)CN(C)C5)cc4)CC3)CC2)c(F)cc1C1CCC(=O)NC1=O (stereo partly shown) [Compound 243]
25 | 3.7 nM | < 1 nM | < 1 nM | – | Cc1cc(C2CCC(=O)NC2=O)ccc1N1CCC2(CCN(C(=O)c3ccc([C@H]4C[C@@H](Nc5cnn(C)c(=O)c5Cl)CN(C)C4)cc3)CC2)CC1 (stereo partly shown) [Compound 250]
26 | 33.3 nM | < 1 nM | 1 to 30 nM | – | CN1C[C@H](Nc2cnn(C)c(=O)c2Cl)C[C@H](c2ccc(C(=O)N3CCC4(CC3)CCN(c3ccc(OC5CCC(=O)NC5=O)cc3)CC4)cc2)C1 (stereo partly shown) [Compound 362]
27 | 5.7 nM | < 1 nM | 1 to 30 nM | – | CN1C[C@H](Nc2cnn(C)c(=O)c2Br)C[C@H](c2ccc(C(=O)N3CCC4(CC3)CCN(c3ccc(OC5CCC(=O)NC5=O)cc3)CC4)cc2)C1 (stereo partly shown) [Compound 363]
28 | 0.3 nM | – | – | – | CN1CC(Nc2cnn(C)c(=O)c2Br)CC(c2ccc(C(=O)N3CCC4(CC3)CCN(c3ccc(C5CCC(=O)NC5=O)cc3)CC4)cc2)C1 (stereo not shown) [Compound 437]
